From PMC4775225, “Bromodomain inhibition of the transcriptional coactivators CBP/EP300 as a therapeutic strategy to target the IRF4 network in multiple myeloma” (eLife, 2016)

Columns and labels:
Test in all cases: Viability, resazurin, 6 days
Assay type in all cases: cell-based
[1] = system: Kasumi-1; details: Homo sapiens, 144 h, Kasumi-1, AML
Method: (§1) Cells were plated at 5000–10000 cells per well of 96-well plates containing titrations of the compounds as indicated. After incubation, the cells were incubated with 500 μg/ml resazurin (Sigma) in PBS for 2–8 hr, and fluorescence was measured (Ex 530 nm, Em 590 nm). Cell cycle analysis was performed as described previously ([Mertz et al., 2011]). For visualization, DNA content histograms were generated with GraphPad Prism. Dose-response curves were generated by plotting the normalized percent growth, percent sub-G1 and percent increase in G0/G1 at each dose values. GI50 values were determined as the concentration at which viability was 50% of the DMSO value and calculated by a four-parameter non-linear regression model in GraphPad Prism.

[2] = system: KOPN-8; details: Homo sapiens, 144 h, KOPN-8, ALL
Method: as §1

[3] = system: PL21; details: Homo sapiens, PL-21, 144 h, PL21, APL
Method: as §1

[4] = system: K562; details: Homo sapiens, 144 h, K562, CML
Method: as §1

[5] = system: KMS-11; details: Homo sapiens, 144 h, KMS-11, myeloma
Method: as §1

[6] = system: SEM cells; details: Homo sapiens, 144 h, ALL
Method: as §1

[7] = system: MOLM-13; details: Homo sapiens, 144 h, MOLM-13, AML
Method: as §1

[8] = system: KMS12BM; details: Homo sapiens, KMS-12-BM, 144 h, myeloma
Method: as §1

[9] = system: Jurkat; details: Homo sapiens, 144 h, ALL
Method: as §1

[10] = system: SD-1; details: Homo sapiens, 144 h, SD-1, ALL
Method: as §1

[11] = system: KMS28PE; details: Homo sapiens, KMS-28PE, 144 h, myeloma
Method: as §1

[12] = system: SET2; details: Homo sapiens, SET-2, 144 h, SET2 D6, AML
Method: as §1

[13] = system: NB4; details: Homo sapiens, NB-4, 144 h, NB4, APL
Method: as §1

[14] = system: EJM; details: Homo sapiens, 144 h, myeloma
Method: as §1

[15] = system: MN-60; details: Homo sapiens, 144 h, MN-60, ALL
Method: as §1

[16] = system: ML2; details: Homo sapiens, ML-2, 144 h, ML2, AML
Method: as §1

[17] = system: HL60; details: Homo sapiens, HL-60, 144 h, HL60, APL
Method: as §1

[18] = system: MOLT4; details: Homo sapiens, MOLT-4, 144 h, MOLT4, ALL
Method: as §1

[19] = system: VAL; details: Homo sapiens, 144 h, ALL
Method: as §1

[20] = system: Molt-16; details: Homo sapiens, 144 h, Molt-16, ALL
Method: as §1

[21] = system: OCI-AML-2; details: Homo sapiens, OCI-AML2, 144 h, OCI-AML-2, AML
Method: as §1

[22] = system: OCI-AML-5; details: Homo sapiens, 144 h, OCI-AML-5, AML
Method: as §1

[23] = system: ROS 50; details: Homo sapiens, 144 h, ROS 50, ALL
Method: as §1

[24] = system: KMS20; details: Homo sapiens, KMS-20, 144 h, KMS20, myeloma
Method: as §1

[25] = system: JJN3; details: Homo sapiens, JJN-3, 144 h, JJN3, myeloma
Method: as §1

[26] = system: NOMO-1; details: Homo sapiens, 144 h, NOMO-1, AML
Method: as §1

[27] = system: KMS27; details: Homo sapiens, KMS-27, 144 h, KMS27, myeloma
Method: as §1

[28] = system: Tanoue; details: Homo sapiens, 144 h, ALL
Method: as §1

[29] = system: U266; details: Homo sapiens, U-266, 144 h, U266, myeloma
Method: as §1

[30] = system: KMS34; details: Homo sapiens, KMS-34, 144 h, KMS34, myeloma
Method: as §1

[31] = system: SKM-1; details: Homo sapiens, 144 h, SKM-1, AML
Method: as §1

[32] = system: KMS12PE; details: Homo sapiens, KMS-12-PE, 144 h, myeloma
Method: as §1

[33] = system: REH; details: Homo sapiens, 144 h, ALL
Method: as §1

[34] = system: KMS26; details: Homo sapiens, KMS-26, 144 h, KMS26, myeloma
Method: as §1

[35] = system: 380; details: Homo sapiens, 144 h, 380, ALL
Method: as §1

[36] = system: MV411; details: Homo sapiens, MV4-11, 144 h, MV411, AML
Method: as §1

[37] = system: KMS21BM; details: Homo sapiens, KMS-21BM, 144 h, myeloma
Method: as §1

[38] = system: THP-1; details: Homo sapiens, 144 h, THP-1, AML
Method: as §1

[39] = system: Kasumi-2; details: Homo sapiens, 144 h, Kasumi-2, AML
Method: as §1

| GI50 [4] [µM] | GI50 [7] [µM] | GI50 [9] [µM] | GI50 [17] [µM] | GI50 [18] [µM] | GI50 [20] [µM] | Structure (SMILES) | GI50 [1] [µM] | GI50 [2] [µM] | GI50 [3] [µM] | GI50 [5] [µM] | GI50 [6] [µM] | GI50 [8] [µM] | GI50 [10] [µM] | GI50 [11] [µM] | GI50 [12] [µM] | GI50 [13] [µM] | GI50 [14] [µM] | GI50 [15] [µM] | GI50 [16] [µM] | GI50 [19] [µM] | also measured |
| --- | --- | --- | --- | --- | --- | --- | --- | --- | --- | --- | --- | --- | --- | --- | --- | --- | --- | --- | --- | --- | --- |
| 8.86 | 6.93 | 12 | 4.01 | 7.62 | 7.98 | COc1ccc(CCc2nc3cc(-c4c(C)noc4C)ccc3n2C[C@H](C)N2CCOCC2)cc1Cl [SGC-CBP30] | 1.95 | 7.23 | 17 | 2.41 | 2.83 | 1.3 | 7.28 | 17.9 | 4.47 | 3.93 | 3.87 | 12.3 | 6.65 | 7.54 | GI50 [21]: 3.68 µM; GI50 [22]: > 20 µM; GI50 [23]: 16.4 µM; GI50 [24]: 1.05 µM; GI50 [25]: 2.53 µM; GI50 [26]: 7.4 µM; GI50 [27]: 11.8 µM; GI50 [28]: 8.88 µM; GI50 [29]: 2.63 µM; GI50 [30]: 1.3 µM; GI50 [31]: 6.61 µM; GI50 [32]: 5.34 µM; GI50 [33]: 18.5 µM; GI50 [34]: 1.34 µM; GI50 [35]: 15.6 µM; GI50 [36]: 3.33 µM; GI50 [37]: 1.27 µM; GI50 [38]: 2.85 µM; GI50 [39]: 3.77 µM |
| > 20 | 15.7 | > 20 | 4.55 | > 20 | 17.6 | CCC(=O)N1CCOc2c(cc(-c3ccc(OC)c(OC)c3)cc2OC[C@H]2CCCN(C)C2)C1 [I-CBP112] | 3.22 | 18.5 | > 20 | 16.3 | 5.34 | 2.36 | 13.5 | > 20 | 12.6 | 17.8 | 14.6 | > 20 | > 20 | 14.2 | GI50 [21]: 9.7 µM; GI50 [22]: > 20 µM; GI50 [23]: > 20 µM; GI50 [24]: 2.97 µM; GI50 [25]: 11.2 µM; GI50 [26]: 8.7 µM; GI50 [27]: > 20 µM; GI50 [28]: > 20 µM; GI50 [29]: 7.61 µM; GI50 [30]: 2.53 µM; GI50 [31]: 15.9 µM; GI50 [32]: 12.8 µM; GI50 [33]: > 20 µM; GI50 [34]: 2.3 µM; GI50 [35]: > 20 µM; GI50 [36]: 13.1 µM; GI50 [37]: 3.26 µM; GI50 [38]: 5.35 µM; GI50 [39]: 8.12 µM |
